Entries after “also recorded” stand apart in the source; their conditions may differ.
Columns and labels:
nigral neurons = conditions: various experimental models of PD; cited from earlier work
Pitx3−/− mice [1] = assay: Locomotor activity (multicage activity meter); assay type: in vivo
Experimental: (§1) In a first experiment, animals were treated with an i.p. injection of 10 mg/kg of benserazide hydrochloride followed 20 minutes later by a second i.p. injection of 10 mg/kg of L-DOPA methyl ester. Separate groups of animals received equivalent injections with vehicle (saline) used as controls. Both L-DOPA- and vehicle-treated mice received, 10 minutes after the second injection, a third i.p. injection of THCV (2 mg/kg) or vehicle (Tween 80-saline). The same treatment schedule was repeated daily during approximately two weeks.
Horizontal and vertical activities were recorded, using a multicage activity meter system consisting of a set of 8 individual cages measuring 20×20×28 cm. Animals were introduced in the actimeter 60 minutes after L-DOPA injection and were assessed for 30 minutes. Horizontal movement was detected by 2 arrays of 16 infrared beams, whereas a third array positioned 4 cm above the floor detected vertical movement.
The software is capable of differentiating between repetitive interruptions of the same photobeam and interruptions of adjacent photobeams. The latter measure was used as an index of ambulatory activity.

[2] = test system: L-DOPA-induced dyskinesia in Pitx3−/− mice; assay: L-DOPA-induced dyskinesia (AIMs), THCV co-administered daily with L-DOPA; assay type: in vivo; conditions: for duration of AIMs (three/four-paw dyskinetic movements): vs L-DOPA alone
Experimental: Pitx3^−/− aphakia mice and their wildtype littermates, were genotyped using PCR amplification analysis of tail-tip DNA extracts. Mice were housed under a 12 h dark/light cycle with free access to food and water. They were used for experimental purposes at the age of 4-6 month-old (24-30 g of weight).
as §1
(§2) AIMs were assessed 30 and 60 min after L-DOPA administration. Dyskinesia was scored off-line by a blind rater based on video footage. Ratings were assessed for four minutes at each time point.
(§3) Total dyskinesia was rated by adding the duration in seconds of all three-paw and four-paw dyskinetic bouts. Additionally, on odd days, individual mice were placed in actimeters and motor activity was assessed following drug administration.
On Day 14, we evaluated AIMs every 20 min for 160 min after administering L-DOPA to determine the extinction of this response.

[3] = test system: phospho(Ser10)-acetyl (Lys14)-Hystone 3 (pAcH3); assay: pAcH3 immunostaining in striatum; assay type: in vivo, mice; conditions: chronic THCV with L-DOPA vs chronic L-DOPA
Experimental: (§4) Following behavioral analysis, animals were euthanized 1 hour after the last injection of L-DOPA. The brains were post-fixed for 24 h and were then transferred to a solution of 0.1 M phosphate buffer containing 0.02% sodium azide for storage at 4° C. To obtain regular blocks, brains were further immersed in 3% agarose and cut in coronal sections (30 μm thick) using a vibratome.
(§5) Immunostaining was carried out in free-floating sections using a standard avidin-biotin immunocytochemical protocol with the following rabbit antisera: (i) FosB (1:7500), and (ii) anti phospho(Ser10)-acetyl (Lys14)-Hystone 3 (pAcH3; 1:500).
(§6) After incubation with primary antibody (overnight), the sections were washed and incubated with biotinylated secondary anti-rabbit antibody (1:500) for 1 h at room temperature. After washing, the sections were incubated with streptavidin for 1 h and antibody staining was developed using DAB.
(§7) Regarding the quantification of FosB and pAcH3 immunoreactivity, it was carried out using an image analysis system.
For all sides, immunostaining intensity and number of immunolabeled nuclei were determined using five serial rostrocaudal sections per animal and three counting frames (dorsal, dorsolateral and lateral) per section (0.091 mm2 each frame). Images were digitized with Leica microscope under 40× lens. Before counting, images were thresholded at a standardized grey-scale level. […]

FosB = FosB immunostaining in striatum; assay type: in vivo, mice; conditions: chronic THCV with L-DOPA vs chronic L-DOPA
Experimental: as §4, §5, §6
For immunostaining quantification in the completely denervated area, we used the Neurolucida software. […]
as §7
For all sides, immunostaining intensity and number of immunolabeled nuclei were determined using five serial rostrocaudal sections per animal and three counting frames (dorsal, dorsolateral and lateral) per section (0.091 mm2 each frame). […]

Pitx3−/− mice [4] = assay: Rotarod test (motor coordination); assay type: in vivo; conditions: THCV co-administered with L-DOPA; after 12 days of daily treatment; vs L-DOPA
Experimental: as §1
Motor coordination was tested using a rotarod. The rotarod was set at a constant speed (10 revolutions per minute) and latency to fall from the rod was assessed. Cut off time was 180 seconds. Before testing, mice were previously habituated in one training session, as described previously.

parkinsonian rats = conditions: acute treatment; cited from earlier work
[5] = test system: established L-DOPA-induced dyskinesia in Pitx3−/− mice; assay: Established L-DOPA-induced dyskinesia (AIMs), THCV started after about two weeks of L-DOPA; assay type: in vivo; conditions: 30 min after L-DOPA; for duration of L-DOPA-induced three/four-paw dyskinesia, established dyskinesia: THCV 2 mg/kg from day 14 after 13 days of L-DOPA, vs L-DOPA alone
Experimental: In a second experiment, benserazide and L-DOPA (and their corresponding vehicles) were administered to mice following the same schedule than in the previous experiment, but THCV, again at the dose of 2 mg/kg, was given for the first time after approximately two weeks of daily benserazide/L-DOPA treatment, with the administration of the three compounds (and vehicles) extending for at least 3 days.
as §2, §3

[6] = test system: 6-hydroxydopamine rat model of Parkinson's disease; conditions: oral coadministration of L-DOPA and rimonabant; cited from earlier work
[7] = THCV co-administered with L-DOPA, 60 min after L-DOPA, vs L-DOPA

In the case of `CCCCC/C=C\C/C=C\C/C=C\C/C=C\CCCC(=O)Nc1ccc(O)cc1` [AM404], the “protection of nigral neurons from death caused by different insults” value (shortened to “protection … by different insults”) (nigral neurons) is listed as “able to protect nigral neurons from death”.

In the case of `C=C(C)[C@@H]1CCC(C)=C[C@H]1c1c(O)cc(CCCCC)cc1O` [CBD, cannabidiol], the “protection … by different insults” value (nigral neurons) is given as “able to protect nigral neurons from death”.

For `CCCCCCC(C)(C)c1ccc([C@@H]2C[C@H](O)CC[C@H]2CCCO)c(O)c1` [CP55,940], the “protection … by different insults” value (nigral neurons) is listed as “able to protect nigral neurons from death”.

In the case of `CCCCCc1cc(O)c2c(c1)OC(C)(C)[C@@H]1CCC(C)=C[C@@H]21` [THC, tetrahydrocannabinol], the “protection … by different insults” value (nigral neurons) is given as “able to protect nigral neurons from death”.

For `CCCc1cc(O)c2c(c1)OC(C)(C)[C@@H]1CCC(C)=C[C@@H]21` [THCV, tetrahydrocannabivarin], the horizontal activity (Pitx3−/− mice [1]; THCV alone vs vehicle) was “no effect on the horizontal activity”, the vertical activity (Pitx3−/− mice [1]; THCV alone vs vehicle) was “did elevate vertical activity by itself” and the horizontal activity (Pitx3−/− mice [1]; [7]) was “attenuating the elevated horizontal and vertical activities”. For the same molecule, the vertical activity (Pitx3−/− mice [1]; [7]) was “attenuating the elevated horizontal and vertical activities”, the “duration of AIMs (three/four-paw dyskinetic movements)” value ([2]; 30 min post-L-DOPA, THCV 2 mg/kg i.p. daily with L-DOPA 10 mg/kg i.p., except days 1 and 3) was “attenuates dyskinesia; also recorded: reduced the duration of AIMs” and the “duration of AIMs (three/four-paw dyskinetic movements)” value ([2]; 60 min post-L-DOPA, THCV 2 mg/kg i.p. daily with L-DOPA) was “to a lesser extent; also recorded: significant differences only at days 7 and 13 of treatment”. The “dyskinetic movements with THCV alone” value ([2]; THCV 2 mg/kg i.p. alone, no L-DOPA) was “showed no dyskinetic movements”, the “dyskinesias score, acute co-treatment” value ([2]; day 1 of treatment, 30 min and 60 min, THCV 2 mg/kg with L-DOPA) was “decreases, but not significantly” and the “time post-treatment up to which difference from L-DOPA alone remained (kinetic profile of AIMs)” value ([2]; last day of treatment, AIMs every 20 min over 160 min) was “up to 80 minutes”. The “immunostaining intensity of pAcH3-positive nuclei in striatum” value [3] was “decreases the intensity of nuclei; also recorded: beneficial effects”, the “number of pAcH3-positive nuclei in striatum” value [3] was “only evident in the intensity of immunostained-nuclei” and the “immunostaining intensity of FosB-positive cells in striatum” value (FosB) was “attenuates the immunostaining-intensity of FosB positive nuclei; also recorded: reduction affected both the number and the immunostaining intensity”. The “number of FosB-positive cells in striatum” value (FosB) was “attenuates the increased expression of FosB-positive cells; also recorded: reduction affected both the number and the immunostaining intensity”, the “rotarod performance (latency to fall)” value (Pitx3−/− mice [4]) was “improved motor coordination in rotarod; also recorded: improved the deteriorated rotarod performance” and the motor inhibition (parkinsonian rats) was “efficacious in reducing motor inhibition”. For the same molecule, the “potency in reducing motor inhibition relative to rimonabant” value (parkinsonian rats) was “equivalent to rimonabant”, the “persistence of the reduction of established dyskinesia” value ([5]; THCV 2 mg/kg) was 3 days and the “duration of L-DOPA-induced three/four-paw dyskinesia, established dyskinesia” value [5] was “significantly reduced dyskinesia”. For the same molecule, the “duration of L-DOPA-induced three/four-paw dyskinesia, established dyskinesia” value ([5]; listed as Δ9-THCV) was “active in reducing the duration of L-DOPA-induced three/four-paw dyskinesia”.

In the case of `Cc1c(C(=O)NN2CCCCC2)nn(-c2ccc(Cl)cc2Cl)c1-c1ccc(Cl)cc1` [rimonabant], the “abnormal involuntary movements and dystonia” value [6] is given as “decreased abnormal involuntary movements and dystonia”.

— patent publication US12350253B2, “Use of cannabinoids in the treatment of dyskinesia associated with parkinson's disease” (Jazz Pharmaceuticals Research UK Limited, priority 2019, dated 2025)
